From patent publication US10975084B2, “KDM5 inhibitors” (Merck Sharp & Dohme Corp., priority 2016, dated 2021) come the findings set out here.

This experiment deals with KDM5B (Homo sapiens (Human), UniProt Q9UGL1). Description: KDM5B TR-FRET Enzyme Activity Assay. The class given is biochemical. The following applies: LANCE TR-FRET; 5 nM full-length recombinant KDM5B; ten point titration 100000 nM to 5.08 nM. On the procedure: KDM5B TR-FRET Enzyme Activity Assay
KDM5B, sequence (Q9UGL1 whole entry): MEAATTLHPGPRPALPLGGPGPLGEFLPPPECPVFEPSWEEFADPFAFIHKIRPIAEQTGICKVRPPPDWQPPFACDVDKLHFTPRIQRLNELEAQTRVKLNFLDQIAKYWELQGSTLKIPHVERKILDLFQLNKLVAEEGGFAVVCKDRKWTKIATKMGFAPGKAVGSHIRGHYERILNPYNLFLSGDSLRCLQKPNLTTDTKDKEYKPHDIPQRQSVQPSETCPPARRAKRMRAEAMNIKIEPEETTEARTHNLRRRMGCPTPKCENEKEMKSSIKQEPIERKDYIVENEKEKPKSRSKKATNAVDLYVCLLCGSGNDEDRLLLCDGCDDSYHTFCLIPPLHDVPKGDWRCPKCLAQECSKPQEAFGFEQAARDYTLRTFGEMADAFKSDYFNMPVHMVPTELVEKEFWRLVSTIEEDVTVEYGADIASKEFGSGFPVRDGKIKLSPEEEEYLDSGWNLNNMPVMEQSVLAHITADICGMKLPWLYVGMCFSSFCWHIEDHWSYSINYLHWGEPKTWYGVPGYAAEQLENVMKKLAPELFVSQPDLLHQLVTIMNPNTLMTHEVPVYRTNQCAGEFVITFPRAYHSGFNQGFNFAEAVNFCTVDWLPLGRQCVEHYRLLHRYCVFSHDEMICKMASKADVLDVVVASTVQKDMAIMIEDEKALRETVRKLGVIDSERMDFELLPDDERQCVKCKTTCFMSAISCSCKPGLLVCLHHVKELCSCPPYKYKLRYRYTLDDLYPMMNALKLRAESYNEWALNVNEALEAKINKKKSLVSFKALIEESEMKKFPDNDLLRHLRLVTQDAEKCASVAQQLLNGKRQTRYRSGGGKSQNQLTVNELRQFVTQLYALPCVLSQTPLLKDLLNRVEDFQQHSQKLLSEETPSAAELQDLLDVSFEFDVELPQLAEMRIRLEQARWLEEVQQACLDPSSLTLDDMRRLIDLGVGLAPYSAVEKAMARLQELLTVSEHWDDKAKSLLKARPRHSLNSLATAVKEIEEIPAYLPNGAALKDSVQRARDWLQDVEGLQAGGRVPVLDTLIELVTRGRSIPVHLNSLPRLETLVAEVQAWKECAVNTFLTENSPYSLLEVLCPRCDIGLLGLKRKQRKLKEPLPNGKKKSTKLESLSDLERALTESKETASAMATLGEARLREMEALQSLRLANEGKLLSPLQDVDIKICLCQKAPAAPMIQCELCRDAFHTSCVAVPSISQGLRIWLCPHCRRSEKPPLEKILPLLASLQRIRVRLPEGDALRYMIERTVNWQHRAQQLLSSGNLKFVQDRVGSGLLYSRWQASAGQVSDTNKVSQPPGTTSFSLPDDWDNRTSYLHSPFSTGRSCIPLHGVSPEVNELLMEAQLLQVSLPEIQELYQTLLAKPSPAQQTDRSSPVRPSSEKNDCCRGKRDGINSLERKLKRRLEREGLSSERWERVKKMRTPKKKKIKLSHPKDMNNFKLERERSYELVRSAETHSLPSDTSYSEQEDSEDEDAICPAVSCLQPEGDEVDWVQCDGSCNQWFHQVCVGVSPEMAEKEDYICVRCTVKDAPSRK
KDM5B enzymatic activity was determined with the LANCE (Lanthanide Chelate Excite) TR-FRET (Time-resolved fluorescence resonance energy transfer) assay. […] To each well of a white Greiner 1536 Lumitrac 1536 well-plate, 50 nL of compound (100 fold dilution in final assay volume of 5 μL) was dispensed, followed by the addition of 4 μL of 1× assay buffer (50 mM Hepes 7.3, 0.5 mM TCEP, 0.005% Brij-35, 0.02% BSA, 50 μM Na-L-Ascorbate and 2 μM AmFe(II)Sulfate) containing 5 nM of Full-length KDM5B enzyme (recombinant protein from baculovirus-transfected Sf21 cells: full-length KDM5B; MW=176.825 kDa). Following a 30 minutes compound and enzyme incubation in a humidified chamber, each reaction was initiated by the addition of 1 μL 1× assay buffer containing […] biotinylated H3K4Me3 peptide, and 500 nM α-ketoglutarate. The final reaction in each well of 5 μL consists of 5 nM KDM5B, 500 nM biotinylated-peptide, and 500 nM α-ketoglutarate. De-methylation reactions were allowed to proceed for 60 minutes. Reactions were immediately quenched by the addition of 5 uL of 2× Lance Detection Buffer (PerkinElmer) with 0.5 mM EDTA and 2 nM of Eu-anti-H3K4Me1-2 antibody, and 30 nM of Streptavidin-conjugated Dylight 650 detection reagents. After 60 minutes incubation with detection reagents, reaction plates were read on a PerkinElmer EnVision plate reader using standard TR-FRET protocol. Briefly, excitation of donor molecules (Eu-chelate-anti-H3K4Me1-2-antibody) with a laser light source at 337 nm produces energy that can be transferred to Dylight-650 acceptor molecules if this donor:acceptor pair is within close proximity. Fluorescence intensity at both 665 nm (acceptor) and 615 nm (donor) are measured and a TR-FRET ratio calculated for each well (acceptor intensity/donor intensity). IC50 values were determined by 4 parameter robust fit of TR-FRET ratio values vs. (Log 10) compound concentrations.
On the technique in general: Time-resolved FRET reads energy transfer from a long-lived donor to a nearby acceptor.
In general, IC50 refers to the concentration needed to halve the response being measured. With `CC(C)c1c(-c2cccc(Cl)c2)[nH]c2ncnn2c1=O` [Example 11-64, 5-(3-chlorophenyl)-6-(1-methylethyl)[1,2,4]triazolo[1,5-a]pyrimidin-7(4H)-one], the IC50 came out at 91.8 nM. The figure for `CC(C)c1c(-c2ccc(-n3nccn3)cc2)[nH]c2ncnn2c1=O` [Example 11-97, 6-(1-methylethyl)-5-[4-(2H-1,2,3-triazol-2-yl)phenyl][1,2,4]triazolo[1,5-a]pyrimidin-7(4H)-one] is 32.4 nM; for `CC(C)c1c(C2=CCC(C)(C)CC2)[nH]c2ncnn2c1=O` [Example 11-62, 5-(4,4-dimethylcyclohex-1-en-1-yl)-6-(1-methylethyl)[1,2,4]triazolo[1,5-a]pyrimidin-7(4H)-one] it is 1030 nM. In the case of `CC(C)c1c(-c2ccc(N3CCCCC3)nc2)[nH]c2ncnn2c1=O` [Example 11-126, 6-(1-methylethyl)-5-(6-piperidin-1-ylpyridin-3-yl)[1,2,4]triazolo[1,5-a]pyrimidin-7(4H)-one] it was 10.4 nM; in that of `O=c1cc(-c2ccco2)[nH]c2ncnn12` [Example 8-24, 5-furan-2-yl[1,2,4]triazolo[1,5-a]pyrimidin-7(4H)-one], 6780 nM. As for `CC(C)c1c(-c2cnn(CCN3CCOCC3)c2)[nH]c2ncnn2c1=O` [Example 11-52, 6-(1-methylethyl)-5-[1-(2-morpholin-4-ylethyl)-1H-pyrazol-4-yl][1,2,4]triazolo[1,5-a]pyrimidin-7(4H)-one], the IC50 amounted to 6.96 nM. Turning to `CC(C)c1c(-c2ccncc2)[nH]c2ncnn2c1=O` [Example 11-24, 6-(1-methylethyl)-5-pyridin-4-yl[1,2,4]triazolo[1,5-a]pyrimidin-7(4H)-one], the IC50 is 41.2 nM. In the case of `CCCn1cc(-c2[nH]c3ncnn3c(=O)c2C(C)C)cn1` [Example 11-21, 6-(1-methylethyl)-5-(1-propyl-1H-pyrazol-4-yl)[1,2,4]triazolo[1,5-a]pyrimidin-7(4H)-one], the IC50 was found to be 5.08 nM. In the case of `CC(C)c1c(-c2ccc(CO)cc2)[nH]c2ncnn2c1=O` [Example 11-60, 5-[4-(hydroxymethyl)phenyl]-6-(1-methylethyl)[1,2,4]triazolo[1,5-a]pyrimidin-7(4H)-one] it was 13.5 nM; in that of `CCn1cc(-c2[nH]c3ncnn3c(=O)c2C(C)C)cn1` [Example 11-19, 5-(1-ethyl-1H-pyrazol-4-yl)-6-(1-methylethyl)[1,2,4]triazolo[1,5-a]pyrimidin-7(4H)-one], 6.27 nM; in that of `O=c1cc(-c2cccc(F)c2)[nH]c2ncnn12` [Example 8-30, 5-(3-fluorophenyl)[1,2,4]triazolo[1,5-a]pyrimidin-7(4H)-one], 2450 nM. Regarding `CC(C)c1c(-c2cccc3[nH]ncc23)[nH]c2ncnn2c1=O` [Example 11-71, 5-(1H-indazol-4-yl)-6-(1-methylethyl)[1,2,4]triazolo[1,5-a]pyrimidin-7(4H)-one], the IC50 is 208 nM. The figure for `O=c1c(F)c(C(F)(F)F)[nH]c2ncnn12` [Example 8-17, 6-fluoro-5-(trifluoromethyl)[1,2,4]triazolo[1,5-a]pyrimidin-7(4H)-one] is 25700 nM. In the case of `CC(C)c1c(-c2ccc(N3CCNCC3)cc2)[nH]c2ncnn2c1=O` [Example 11-118, 6-(1-methylethyl)-5-(4-piperazin-1-ylphenyl)[1,2,4]triazolo[1,5-a]pyrimidin-7(4H)-one] it was 9.79 nM; in that of `CC(C)(C)c1c(-c2ccc(F)cc2)[nH]c2ncnn2c1=O` [Example 11-5, 6-tert-butyl-5-(4-fluorophenyl)[1,2,4]triazolo[1,5-a]pyrimidin-7(4H)-one], 5400 nM; in that of `CC(C)c1c(-c2cnn3c2CCC3)[nH]c2ncnn2c1=O` [Example 11-112, 5-(5,6-dihydro-4H-pyrrolo[1,2-b]pyrazol-3-yl)-6-(1-methylethyl)[1,2,4]triazolo[1,5-a]pyrimidin-7(4H)-one], 51.2 nM.

For the compound `CC(C)c1c(-c2ccccc2)[nH]c2ncnn2c1=O` [Example 8-35, 6-(1-methylethyl)-5-phenyl[1,2,4]triazolo[1,5-a]pyrimidin-7(4H)-one], the IC50 was determined as 271 nM. For `CC(C)c1c(-c2cnn(-c3ccccc3)c2)[nH]c2ncnn2c1=O` [Example 11-8, 6-(1-methylethyl)-5-(1-phenyl-1H-pyrazol-4-yl)[1,2,4]triazolo[1,5-a]pyrimidin-7(4H)-one], the IC50 came out at 6.28 nM. `Cn1ccc(-c2cc(=O)n3ncnc3[nH]2)n1` [Example 8-13, 5-(1-methyl-1H-pyrazol-3-yl)[1,2,4]triazolo[1,5-a]pyrimidin-7(4H)-one]: the IC50 is 29200 nM. For the compound `COCC(C)(C)n1cc(-c2[nH]c3ncnn3c(=O)c2C(C)C)cn1` [Example 11-92, 5-[1-(2-methoxy-1,1-dimethylethyl)-1H-pyrazol-4-yl]-6-(1-methylethyl)[1,2,4]triazolo[1,5-a]pyrimidin-7(4H)-one], the IC50 worked out at 5.29 nM. Regarding `CC(C)c1c(-c2ccc(N(C)C)cc2)[nH]c2ncnn2c1=O` [Example 11-103, 5-[4-(dimethylamino)phenyl]-6-(1-methylethyl)[1,2,4]triazolo[1,5-a]pyrimidin-7(4H)-one], the IC50 stood at 36.9 nM.

Turning to `CC(C)c1c(-c2cccc(C(O)C(F)(F)F)c2)[nH]c2ncnn2c1=O` (centres unmarked) [Example 11-54, 6-(1-methylethyl)-5-[3-(2,2,2-trifluoro-1-hydroxyethyl)phenyl][1,2,4]triazolo[1,5-a]pyrimidin-7(4H)-one], the IC50 came to 31.4 nM. In the case of `CC(C)c1c(-c2ccc(C3CC3)nc2)[nH]c2ncnn2c1=O` [Example 11-133, 5-(6-cyclopropylpyridin-3-yl)-6-(1-methylethyl)[1,2,4]triazolo[1,5-a]pyrimidin-7(4H)-one] it was 44.4 nM; in that of `CC(C)c1c(-c2ccnc(C(F)(F)F)c2)[nH]c2ncnn2c1=O` [Example 11-120, 6-(1-methylethyl)-5-[2-(trifluoromethyl)pyridin-4-yl][1,2,4]triazolo[1,5-a]pyrimidin-7(4H)-one], 17 nM. Turning to `CC(C)c1c(C2=CCCOC2)[nH]c2ncnn2c1=O` [Example 11-31, 5-(5,6-dihydro-2H-pyran-3-yl)-6-(1-methylethyl)[1,2,4]triazolo[1,5-a]pyrimidin-7(4H)-one], the IC50 stood at 372 nM. Turning to `CC(C)c1c(-c2cc(-c3ccccc3)cs2)[nH]c2ncnn2c1=O` [Example 11-144, 6-(1-methylethyl)-5-(4-phenylthiophen-2-yl)[1,2,4]triazolo[1,5-a]pyrimidin-7(4H)-one], the IC50 stood at 76.2 nM. The figure for `CC(C)c1c(-c2ccc(N3CCOCC3)cc2)[nH]c2ncnn2c1=O` [Example 11-10, 6-(1-methylethyl)-5-(4-morpholin-4-ylphenyl)[1,2,4]triazolo[1,5-a]pyrimidin-7(4H)-one] is 7.52 nM; for `CC(C)c1c(-c2cccc(C(F)(F)F)c2)[nH]c2ncnn2c1=O` [Example 11-85, 6-(1-methylethyl)-5-[3-(trifluoromethyl)phenyl] [1,2,4]triazolo[1,5-a]pyrimidin-7(4H)-one] it is 41.2 nM; for `CC(C)c1c(-c2ccc(-c3ccncc3)cc2)[nH]c2ncnn2c1=O` [Example 11-88, 6-(1-methylethyl)-5-(4-pyridin-4-ylphenyl)[1,2,4]triazolo[1,5-a]pyrimidin-7(4H)-one] it is 8.57 nM. In the case of `Cc1nc(-c2ccccc2)sc1-c1[nH]c2ncnn2c(=O)c1C(C)C` [Example 11-116, 6-(1-methylethyl)-5-(4-methyl-2-phenyl-1,3-thiazol-5-yl)[1,2,4]triazolo[1,5-a]pyrimidin-7(4H)-one], the IC50 worked out at 444 nM. Consider `COc1ccc(-c2[nH]c3ncnn3c(=O)c2C(C)C)cc1` [Example 11-58, 5-(4-methoxyphenyl)-6-(1-methylethyl) [1,2,4]triazolo[1,5-a]pyrimidin-7(4H)-one], for which the IC50 amounted to 37.3 nM. In the case of `CC(C)c1c(-c2ccc3c(c2)CCC(=O)N3)[nH]c2ncnn2c1=O` [Example 11-101, 6-[6-(1-methylethyl)-7-oxo-4,7-dihydro[1,2,4]triazolo[1,5-a]pyrimidin-5-yl]-3,4-dihydroquinolin-2(1H)-one] it was 7.57 nM. The figure for `Cc1ccc(-c2[nH]c3ncnn3c(=O)c2C(C)C)o1` [Example 11-117, 6-(1-methylethyl)-5-(5-methylfuran-2-yl)[1,2,4]triazolo[1,5-a]pyrimidin-7(4H)-one] is 552 nM; for `Cc1cc(=O)n2ncnc2[nH]1` [Example 8-4, 5-methyl-[1,2,4]triazolo[1,5-a]pyrimidin-7(4H)-one] it is 26400 nM; for `CC(C)c1c(-c2ccccc2F)[nH]c2ncnn2c1=O` [Example 11-32, 5-(2-fluorophenyl)-6-(1-methylethyl)[1,2,4]triazolo[1,5-a]pyrimidin-7(4H)-one] it is 394 nM.
